Source: US8053553B2, “Targeting host proteinases as a therapeutic strategy against viral and bacterial pathogens” (Socpra Sciences Sante Et Humaines, priority 2007, dated 2011)
Residues, ends and D or L forms follow the SMILES beside them.

Biological target: T1, furin (Homo sapiens, UniProt P09958)
T1 construct: made in house; host or cells: Drosophila S2 cells (Invitrogen expression system)
Assay: biochemical
Conditions: furin, Pyr-RTKR-AMC substrate; N-terminal deletions (Example 2, Table 6); read-out: Ki

T1 sequence (P09958 108-794 limits assumed): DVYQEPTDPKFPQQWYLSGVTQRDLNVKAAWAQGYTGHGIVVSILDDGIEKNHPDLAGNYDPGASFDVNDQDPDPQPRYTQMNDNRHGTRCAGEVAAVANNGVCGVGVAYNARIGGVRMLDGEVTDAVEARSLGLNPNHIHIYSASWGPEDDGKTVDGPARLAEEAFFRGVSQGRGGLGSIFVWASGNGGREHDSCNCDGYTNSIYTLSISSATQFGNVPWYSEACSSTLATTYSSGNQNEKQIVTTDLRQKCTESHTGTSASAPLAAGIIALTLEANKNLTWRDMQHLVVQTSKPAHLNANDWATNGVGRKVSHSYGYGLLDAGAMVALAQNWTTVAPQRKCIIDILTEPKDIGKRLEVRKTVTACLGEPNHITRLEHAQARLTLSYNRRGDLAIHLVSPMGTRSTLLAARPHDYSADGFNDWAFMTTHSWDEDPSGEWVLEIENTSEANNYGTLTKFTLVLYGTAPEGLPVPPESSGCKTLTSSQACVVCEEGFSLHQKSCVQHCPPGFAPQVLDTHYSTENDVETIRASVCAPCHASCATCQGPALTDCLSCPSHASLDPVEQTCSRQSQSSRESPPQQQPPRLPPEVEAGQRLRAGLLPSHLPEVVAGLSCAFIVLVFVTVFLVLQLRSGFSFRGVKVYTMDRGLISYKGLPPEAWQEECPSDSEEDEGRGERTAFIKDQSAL

How did the Ki turn out when `C[C@H](NC(=O)[C@H](CCCNC(=N)N)NC(=O)[C@@H]1CCCN1)C(=O)N[C@@H](CCCNC(=N)N)C(=O)N[C@@H](CCCNC(=N)N)C(=O)N[C@@H](CCCNC(=N)N)C(=O)N[C@@H](CCCCN)C(=O)N[C@@H](CCCCN)C(=O)N[C@@H](CCCNC(=N)N)C(=O)N[C@H](C(N)=O)[C@@H](C)O` was run?
The Ki was 16.6 nM.

Same assay, conditions: furin, Pyr-RTKR-AMC substrate; alanine scanning mutagenesis of the H5 furin cleavage sequence (Table 2); read-out: Ki

For `C[C@H](NC(=O)[C@H](CCCCN)NC(=O)[C@H](CCCNC(=N)N)NC(=O)[C@H](CCCNC(=N)N)NC(=O)[C@H](CCCNC(=N)N)NC(=O)[C@H](CCC(=O)O)NC(=O)[C@H](CCCNC(=N)N)NC(=O)[C@@H]1CCCN1C(=O)[C@@H](N)[C@@H](C)O)C(=O)N[C@@H](CCCNC(=N)N)C(N)=O` (H-TPRERRRKAR-NH2), which Ki is on record?
The Ki was > 100 nM.

With `C[C@H](NC(=O)[C@H](C)NC(=O)[C@H](CCCNC(=N)N)NC(=O)[C@H](CCCNC(=N)N)NC(=O)[C@H](CCCNC(=N)N)NC(=O)[C@H](CCC(=O)O)NC(=O)[C@H](CCCNC(=N)N)NC(=O)[C@@H]1CCCN1C(=O)[C@@H](N)[C@@H](C)O)C(=O)N[C@@H](CCCNC(=N)N)C(N)=O` as the compound, how does the Ki read?
The Ki was > 100 nM.

Which Ki does the source give for `C[C@H](NC(=O)[C@H](C)NC(=O)[C@H](CCCNC(=N)N)NC(=O)[C@H](CCCNC(=N)N)NC(=O)[C@H](CCC(=O)O)NC(=O)[C@H](CCCNC(=N)N)NC(=O)[C@@H]1CCCN1C(=O)[C@@H](N)[C@@H](C)O)C(=O)N[C@@H](CCCCN)C(=O)N[C@@H](CCCNC(=N)N)C(N)=O` (H-TPRERRAAKR-NH2) here?
The Ki was > 100 nM.

`C[C@H](NC(=O)[C@H](C)NC(=O)[C@H](CCC(=O)O)NC(=O)[C@H](CCCNC(=N)N)NC(=O)[C@@H]1CCCN1C(=O)[C@@H](N)[C@@H](C)O)C(=O)N[C@@H](C)C(=O)N[C@@H](CCCCN)C(=O)N[C@@H](CCCCN)C(=O)N[C@@H](CCCNC(=N)N)C(=O)NCC(N)=O` (H-TPREAAAKKRG-NH2) was tested. Which Ki did it give?
The Ki was > 100 nM.

`C[C@H](NC(=O)[C@H](CCC(=O)O)NC(=O)[C@H](CCCNC(=N)N)NC(=O)[C@@H]1CCCN1C(=O)[C@@H](N)[C@@H](C)O)C(=O)N[C@@H](CCCNC(=N)N)C(=O)N[C@@H](CCCNC(=N)N)C(=O)N[C@@H](CCCCN)C(=O)N[C@@H](CCCCN)C(=O)N[C@@H](CCCNC(=N)N)C(N)=O` (H-TPREARRKKR-NH2) was tested. Which Ki did it give?
The Ki was > 100 nM.

How did the Ki turn out when `C[C@H](NC(=O)[C@H](C)NC(=O)[C@H](CCCCN)NC(=O)[C@H](CCCNC(=N)N)NC(=O)[C@H](CCCNC(=N)N)NC(=O)[C@H](CCCNC(=N)N)NC(=O)[C@H](CCC(=O)O)NC(=O)[C@H](CCCNC(=N)N)NC(=O)[C@@H]1CCCN1C(=O)[C@@H](N)[C@@H](C)O)C(=O)NCC(N)=O` (H-TPRERRRKAAG-NH2) was run?
The Ki was > 100 nM.

`C[C@H](NC(=O)[C@H](C)NC(=O)[C@H](CCCCN)NC(=O)[C@H](CCCNC(=N)N)NC(=O)[C@H](CCCNC(=N)N)NC(=O)[C@H](CCCNC(=N)N)NC(=O)[C@H](CCC(=O)O)NC(=O)[C@H](CCCNC(=N)N)NC(=O)[C@@H]1CCCN1C(=O)[C@@H](N)[C@@H](C)O)C(N)=O` (H-TPRERRRKAA-NH2) was tested. Which Ki did it give?
The Ki was > 100 nM.

`CC(C)[C@H](NC(=O)[C@H](CCCNC(=N)N)NC(=O)[C@H](CCCCN)NC(=O)[C@H](CCCCN)NC(=O)[C@H](CCCNC(=N)N)NC(=O)[C@H](CCCNC(=N)N)NC(=O)[C@H](CCCNC(=N)N)NC(=O)[C@H](C)NC(=O)[C@H](C)NC(=O)[C@@H]1CCCN1C(=O)[C@@H](N)[C@@H](C)O)C(N)=O` (H-TPAARRRKKRV-NH2) was tested. Which Ki did it give?
The Ki was > 100 nM.

How did the Ki turn out when `C[C@H](NC(=O)[C@H](C)NC(=O)[C@H](CCCNC(=N)N)NC(=O)[C@H](CCCNC(=N)N)NC(=O)[C@H](CCCNC(=N)N)NC(=O)[C@H](CCC(=O)O)NC(=O)[C@H](CCCNC(=N)N)NC(=O)[C@@H]1CCCN1C(=O)[C@@H](N)[C@@H](C)O)C(=O)N[C@@H](CCCNC(=N)N)C(=O)NCC(N)=O` was run?
The Ki was > 100 nM.

For `C[C@H](N)C(=O)N[C@@H](C)C(=O)N[C@@H](C)C(=O)N[C@@H](CCC(=O)O)C(=O)N[C@@H](CCCNC(=N)N)C(=O)N[C@@H](CCCNC(=N)N)C(=O)N[C@@H](CCCNC(=N)N)C(=O)N[C@@H](CCCCN)C(=O)N[C@@H](CCCCN)C(=O)N[C@@H](CCCNC(=N)N)C(N)=O` (H-AAAERRRKKR-NH2), which Ki is on record?
The Ki was > 100 nM.

`C[C@H](NC(=O)[C@H](C)NC(=O)[C@H](CCCNC(=N)N)NC(=O)[C@H](CCC(=O)O)NC(=O)[C@H](CCCNC(=N)N)NC(=O)[C@@H]1CCCN1C(=O)[C@@H](N)[C@@H](C)O)C(=O)N[C@@H](CCCCN)C(=O)N[C@@H](CCCCN)C(=O)N[C@@H](CCCNC(=N)N)C(=O)NCC(N)=O` (H-TPRERAAKKRG-NH2) was tested. Which Ki did it give?
The Ki was > 100 nM.

For `C[C@H](NC(=O)[C@H](C)NC(=O)[C@@H](N)[C@@H](C)O)C(=O)N[C@@H](CCC(=O)O)C(=O)N[C@@H](CCCNC(=N)N)C(=O)N[C@@H](CCCNC(=N)N)C(=O)N[C@@H](CCCNC(=N)N)C(=O)N[C@@H](CCCCN)C(=O)N[C@@H](CCCCN)C(=O)N[C@@H](CCCNC(=N)N)C(=O)NCC(N)=O` (H-TAAERRRKKRG-NH2), which Ki is on record?
The Ki was > 100 nM.

Which Ki does the source give for `CC(C)[C@H](NC(=O)[C@H](CCCNC(=N)N)NC(=O)[C@H](CCCCN)NC(=O)[C@H](CCCCN)NC(=O)[C@H](CCCNC(=N)N)NC(=O)[C@H](CCCNC(=N)N)NC(=O)[C@H](CCCNC(=N)N)NC(=O)[C@H](CCC(=O)O)NC(=O)[C@H](C)NC(=O)[C@@H]1CCCN1C(=O)[C@@H](N)[C@@H](C)O)C(N)=O` (H-TPAERRRKKRV-NH2) here?
The Ki was > 100 nM.

Same assay, conditions: furin, Pyr-RTKR-AMC substrate; optimization of the inhibitory peptides (Table 3); read-out: Ki

With `C[C@@H](O)[C@H](N)C(=O)N1CCC[C@H]1C(=O)N[C@@H](CCC(N)=O)C(=O)N[C@@H](CCCNC(=N)N)C(=O)N[C@H](CCC(=O)O)C(=O)N[C@@H](CCCNC(=N)N)C(=O)N[C@@H](CCCNC(=N)N)C(=O)N[C@@H](CCCNC(=N)N)C(=O)N[C@@H](CCCCN)C(=O)N[C@@H](CCCCN)C(=O)N[C@@H](CCCNC(=N)N)C(=O)NCC(N)=O` [TPQReRRRKKRG] as the compound, how does the Ki read?
The Ki was > 100 nM.

For `C[C@H](NC(=O)[C@H](CCCNC(=N)N)NC(=O)[C@H](CCC(N)=O)NC(=O)[C@@H]1CCCN1C(=O)[C@@H](N)[C@@H](C)O)C(=O)N[C@@H](CCCNC(=N)N)C(=O)N[C@@H](CCCNC(=N)N)C(=O)N[C@@H](CCCNC(=N)N)C(=O)N[C@@H](CCCCN)C(=O)N[C@@H](CCCCN)C(=O)N[C@@H](CCCNC(=N)N)C(=O)N[C@@H](Cc1c[nH]c2ccccc12)C(N)=O` (H-TPQRARRRKKRW-NH2), which Ki is on record?
Its Ki is 34 nM.

`C[C@@H](O)[C@H](N)C(=O)N1CCC[C@H]1C(=O)N[C@@H](CCC(N)=O)C(=O)N[C@@H](CCCNC(=N)N)C(=O)N[C@@H](CS)C(=O)N[C@@H](CCCNC(=N)N)C(=O)N[C@@H](CCCNC(=N)N)C(=O)N[C@@H](CCCNC(=N)N)C(=O)N[C@@H](CCCCN)C(=O)N[C@@H](CCCCN)C(=O)N[C@@H](CCCNC(=N)N)C(=O)NCC(N)=O` was tested. Which Ki did it give?
Its Ki is > 100 nM.

How did the Ki turn out when `CSCC[C@H](NC(=O)[C@H](CCCNC(=N)N)NC(=O)[C@H](CCCCN)NC(=O)[C@H](CCCCN)NC(=O)[C@H](CCCNC(=N)N)NC(=O)[C@H](CCCNC(=N)N)NC(=O)[C@H](CCCNC(=N)N)NC(=O)[C@H](C)NC(=O)[C@H](CCCNC(=N)N)NC(=O)[C@H](CCC(N)=O)NC(=O)[C@@H]1CCCN1C(=O)[C@@H](N)[C@@H](C)O)C(N)=O` (H-TPQRARRRKKRM-NH2) was run?
The Ki was 58 nM.

For `C[C@@H](O)[C@H](N)C(=O)N1CCC[C@H]1C(=O)N[C@@H](CCC(N)=O)C(=O)N[C@@H](CCCNC(=N)N)C(=O)N[C@@H](CCCNC(=N)N)C(=O)N[C@@H](CCCNC(=N)N)C(=O)N[C@@H](CCCNC(=N)N)C(=O)N[C@@H](CCCNC(=N)N)C(=O)N[C@@H](CCCCN)C(=O)N[C@@H](CCCCN)C(=O)N[C@@H](CCCNC(=N)N)C(=O)NCC(N)=O`, which Ki is on record?
Its Ki is > 100 nM.

`C[C@@H](O)[C@H](N)C(=O)N1CCC[C@H]1C(=O)N[C@@H](CCC(N)=O)C(=O)N[C@@H](CCCNC(=N)N)C(=O)N[C@H](C(=O)N[C@@H](CCCNC(=N)N)C(=O)N[C@@H](CCCNC(=N)N)C(=O)N[C@@H](CCCNC(=N)N)C(=O)N[C@@H](CCCCN)C(=O)N[C@@H](CCCCN)C(=O)N[C@@H](CCCNC(=N)N)C(=O)NCC(N)=O)[C@@H](C)O` (H-TPQRTRRRKKRG-NH2) was tested. Which Ki did it give?
The Ki was > 100 nM.

`CC(C)C[C@H](NC(=O)[C@H](CCCNC(=N)N)NC(=O)[C@H](CCC(N)=O)NC(=O)[C@@H]1CCCN1C(=O)[C@@H](N)[C@@H](C)O)C(=O)N[C@@H](CCCNC(=N)N)C(=O)N[C@@H](CCCNC(=N)N)C(=O)N[C@@H](CCCNC(=N)N)C(=O)N[C@@H](CCCCN)C(=O)N[C@@H](CCCCN)C(=O)N[C@@H](CCCNC(=N)N)C(=O)NCC(N)=O` was tested. Which Ki did it give?
Its Ki is > 100 nM.

Which Ki does the source give for `C[C@@H](O)[C@H](N)C(=O)N1CCC[C@H]1C(=O)N[C@@H](CCC(N)=O)C(=O)N[C@@H](CCCNC(=N)N)C(=O)N[C@H](CCCCN)C(=O)N[C@@H](CCCNC(=N)N)C(=O)N[C@@H](CCCNC(=N)N)C(=O)N[C@@H](CCCNC(=N)N)C(=O)N[C@@H](CCCCN)C(=O)N[C@@H](CCCCN)C(=O)N[C@@H](CCCNC(=N)N)C(=O)NCC(N)=O` [TPQRkRRRKKRG] here?
The Ki was > 100 nM.

For `C[C@@H](O)[C@H](N)C(=O)N1CCC[C@H]1C(=O)N[C@@H](CCC(N)=O)C(=O)N[C@@H](CCCNC(=N)N)C(=O)N[C@@H](CC(=O)O)C(=O)N[C@@H](CCCNC(=N)N)C(=O)N[C@@H](CCCNC(=N)N)C(=O)N[C@@H](CCCNC(=N)N)C(=O)N[C@@H](CCCCN)C(=O)N[C@@H](CCCCN)C(=O)N[C@@H](CCCNC(=N)N)C(=O)NCC(N)=O` (H-TPQRDRRRKKRG-NH2), which Ki is on record?
Its Ki is > 100 nM.

How did the Ki turn out when `C[C@H](NC(=O)[C@H](CCCNC(=N)N)NC(=O)[C@H](CCC(N)=O)NC(=O)[C@@H]1CCCN1C(=O)[C@@H](N)[C@@H](C)O)C(=O)N[C@@H](CCCNC(=N)N)C(=O)N[C@@H](CCCNC(=N)N)C(=O)N[C@@H](CCCNC(=N)N)C(=O)N[C@@H](CCCCN)C(=O)N[C@@H](CCCCN)C(=O)N[C@@H](CCCNC(N)=O)C(=O)NCC(N)=O` was run?
Its Ki is > 100 nM.

How did the Ki turn out when `C[C@@H](O)[C@H](N)C(=O)N1CCC[C@H]1C(=O)N[C@@H](CCC(N)=O)C(=O)N[C@@H](CCCNC(=N)N)C(=O)NCCC(=O)N[C@@H](CCCNC(=N)N)C(=O)N[C@@H](CCCNC(=N)N)C(=O)N[C@@H](CCCNC(=N)N)C(=O)N[C@@H](CCCCN)C(=O)N[C@@H](CCCCN)C(=O)N[C@@H](CCCNC(=N)N)C(=O)NCC(N)=O` [TPQR1RRRKKRG] was run?
The Ki was > 100 nM.

Same assay, conditions: read-out: Ki

Which Ki does the source give for `C[C@H](NC(=O)[C@H](CCCNC(=N)N)NC(=O)[C@@H]1CCCN1C(=O)[C@@H](N)[C@@H](C)O)C(=O)N[C@@H](CCCNC(=N)N)C(=O)N[C@@H](CCCNC(=N)N)C(=O)N[C@@H](CCCNC(=N)N)C(=O)N[C@@H](CCCCN)C(=O)N[C@@H](CCCCN)C(=O)N[C@@H](CCCNC(=N)N)C(=O)N[C@@H](CC(=O)O)C(N)=O` here?
Its Ki is 56 nM.
